In patent US11478460B2, “Diaryl substituted 6,5-fused ring compounds as C5aR inhibitors” (CHEMOCENTRYX, INC., priority 2017, dated 2022) one finds IC50 data, which are given here for 60 molecules.

Sequence of C5aR (P21730 whole entry): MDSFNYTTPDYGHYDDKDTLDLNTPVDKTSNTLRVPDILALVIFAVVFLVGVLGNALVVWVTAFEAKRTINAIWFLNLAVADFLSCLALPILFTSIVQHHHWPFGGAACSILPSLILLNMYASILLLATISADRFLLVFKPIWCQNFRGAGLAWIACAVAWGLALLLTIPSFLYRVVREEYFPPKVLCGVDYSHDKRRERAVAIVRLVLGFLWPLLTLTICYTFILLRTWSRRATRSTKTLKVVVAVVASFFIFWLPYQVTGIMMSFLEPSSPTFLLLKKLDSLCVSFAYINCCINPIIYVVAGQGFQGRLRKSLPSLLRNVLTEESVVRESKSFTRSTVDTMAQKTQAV

In the assay the target is C5aR (Homo sapiens (Human), UniProt P21730). The experiment in a line: Chemotaxis assay using U937 cells (C5aR mediated migration). It counts as cell-based. The conditions noted are these: read-out: Mig IC50. The procedure, abridged:
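Migration toward 0.03 nM C5a, mixed with varying compound in the lower chamber (HBSS with 1% FBS), was measured over 1.5 h at 37° C through 5 μm filters. Upper chamber held 100,000 U937 cells treated overnight with 0.5 mM cAMP; migrated cells quantified by counts or CyQuant for IC50, SDF-1α as specificity control.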
Regarding `CCc1cccc(C)c1-n1nc2c(c1-c1ccc(NC(N)=O)cc1)CN(c1cc(C(C)(C)C)ccc1C)CC2` [Example 1.380], the IC50 lay within 5 to 50 nM. As to `CCc1cccc(CC)c1-n1nc2c(c1-c1cc(F)c(NC(N)=O)cc1F)CN(Cc1cnn(CC)c1)CC2` [Example 1.072], the IC50 lay within 50 to 500 nM. With `COc1cccc(C)c1-n1nc2c(c1-c1ccc(NC(N)=O)cc1)CN(c1ncccc1C)CC2` [Example 1.408], the IC50 was in the range of 50 to 500 nM. The figure for `Cc1cccc(OCC(C)C)c1-n1nc2c(c1-c1ccc(NC(N)=O)cc1)CN(Cc1cc(Cl)ccc1F)CC2` [Example 1.309] is no more than 5 nM; for `Cc1cccc(OCC(C)C)c1-n1nc2c(c1-c1ccc(NC(N)=O)cc1)CN(C(C)(C)c1ccccc1)CC2` [Example 1.134] it is 5 to 50 nM; for `Cc1cccc(OCC(C)C)c1-n1nc2c(c1-c1ccc(NC(N)=O)cc1)CN(c1cc(C(C)(C)C)ccc1Cl)CC2` [Example 1.422] it is 5 to 50 nM. Take `COc1cc(F)c(-c2c3c(nn2-c2c(C)cccc2C)CCN(c2ncc(Cl)cc2Cl)C3)cc1F` [Example 1.121]: the concentration for half-maximal inhibition (IC50) was greater than 500 nM. For the molecule `Cc1cccc(OCC(C)C)c1-n1nc2c(c1-c1ccc(NC(N)=O)cc1)CN(Cc1ccc(F)cc1Cl)CC2` [Example 1.326], the half-maximal inhibitory concentration (IC50) was no more than 5 nM. Then `Cc1cccc(OCC(C)C)c1-n1nc2c(c1-c1cc(F)c(NC(N)=O)cc1F)CN(c1nccn3ccnc13)CC2` [Example 1.142], with 5 to 50 nM. `CCc1cccc(CC)c1-n1nc2c(c1-c1cc(F)c(NC(N)=O)cc1F)CN(Cc1cc(C(F)(F)F)ccc1C)CC2` [Example 1.036]: the IC50 is no more than 5 nM. Consider `Cc1cccc(OCC(C)C)c1-n1nc2c(c1-c1ccc(NC(N)=O)c(F)c1)CN(c1ncc(F)cc1Cl)CC2` [Example 1.228], for which the IC50 was no more than 5 nM. With `Cc1cccc(OCC(C)C)c1-n1nc2c(c1-c1ccc(NC(N)=O)c(F)c1)CN(C(C)CC(C)C)CC2` (stereo not drawn) [Example 1.239], the IC50 was no more than 5 nM. The figure for `CCc1cccc(CC)c1-n1nc2c(c1-c1cc(F)c(NC(N)=O)cc1F)CN(Cc1ccccc1Cl)C(C)(C)C2` [Example 1.007] is no more than 5 nM; for `Cc1cccc(C)c1-n1nc2c(c1-c1ccc(C(N)=O)cc1)CN(c1ncc(Cl)cc1Cl)CC2` [Example 1.109] it is 50 to 500 nM; for `Cc1cccc(OCC(C)C)c1-n1nc2c(c1-c1ccc(NC(N)=O)cc1)CN(c1ncc(C(F)(F)F)cc1Cl)CC2` [Example 1.353] it is 5 to 50 nM.

Consider `CCc1cccc(CC)c1-n1nc2c(c1-c1ccc(NC(N)=O)c(F)c1)CN(CC(C)(C)C)CC2` [Example 1.253], for which the IC50 is no more than 5 nM. Turning to `COc1cccc(C)c1-n1nc2c(c1-c1cc(F)c(NC(N)=O)cc1F)CN(c1ncc(Cl)cc1Cl)CC2` [Example 1.184], the IC50 was no more than 5 nM.

Consider `Cc1cccc(CCC(C)C)c1-n1nc2c(c1-c1ccc(NC(N)=O)cc1)CN(C(=O)OC(C)(C)C)CC2` [Example 1.414], for which the IC50 was in the range of 50 to 500 nM. `Cc1cccc(C)c1-n1nc2c(c1-c1cc(F)c(NC(N)=O)cc1F)CN(c1ncc(Cl)cc1C(N)=O)CC2` [Example 1.101]: the IC50 was greater than 500 nM. Then `Cc1cccc(C)c1-n1nc2c(c1-c1ccc(C(N)=O)c(F)c1)CN(c1ncc(Cl)cc1Cl)CC2` [Example 1.110], with greater than 500 nM; and `CC[C@@H](c1ccccc1)N1CCc2nn(-c3c(C)cccc3C)c(-c3cc(F)c(NC(N)=O)cc3F)c2C1` [Example 1.092], with no more than 5 nM.

Consider `CCc1cccc(CC)c1-n1nc2c(c1-c1cc(F)c(NC(N)=O)cc1F)CN(C(C)(C)c1ccc(OC)cc1)CC2` [Example 1.157], for which the IC50 was no more than 5 nM. The figure for `Cc1cccc(OCC(C)C)c1-n1nc2c(c1-c1ccc(NC(N)=O)cc1)CN(Cc1c(F)cccc1C(F)(F)F)CC2` [Example 1.351] is no more than 5 nM. Then `Cc1ccc(C(C)(C)C)cc1N1CCc2nn(-c3c(C)cccc3C)c(-c3ccc(NC(N)=O)cc3)c2C1` [Example 1.442], with 5 to 50 nM; and `Cc1ccc(N2CCc3nn(-c4c(C)cccc4OCC(C)C)c(-c4ccc(NC(N)=O)cc4)c3C2)cc1C(F)(F)F` [Example 1.440], with 5 to 50 nM; and `Cc1cccc(OCC(C)C)c1-n1nc2c(c1-c1ccc(NC(N)=O)cc1)CN(c1cc(C(F)(F)F)ccc1F)CC2` [Example 1.368], with 5 to 50 nM. For `CCN1CCc2nn(-c3c(C)cccc3OCC(C)C)c(-c3ccc(NC(N)=O)c(F)c3)c2C1` [Example 1.265], the IC50 is 50 to 500 nM. Regarding `Cc1cccc(C)c1-n1nc2c(c1-c1cc(F)c(NC(N)=O)cc1F)CN(c1ncc(Cl)cc1Cl)CC2` [Example 1.180], the IC50 is no more than 5 nM.

Consider `Cc1cccc(F)c1-n1nc2c(c1-c1ccc(NC(N)=O)cc1)CN(c1ccccc1C(C)C)CC2` [Example 1.461], for which the IC50 is 50 to 500 nM.

In the case of `CCc1cccc(CC)c1-n1nc2c(c1-c1cc(F)c(NC(N)=O)cc1F)CN(Cc1ccc(Cl)cc1C(F)(F)F)CC2` [Example 1.076], the IC50 is no more than 5 nM. For `Cc1cccc(OCC(C)C)c1-n1nc2c(c1-c1ccc(NC(N)=O)cc1)CN(C(=O)c1ccccc1)CC2` [Example 1.431], the IC50 lay in the range of 50 to 500 nM. `Cc1cccc(OCC(C)C)c1-n1nc2c(c1-c1ccc(NC(N)=O)cc1)CN(C1CCCC1)CC2` [Example 1.410]: the IC50 fell in the range of 50 to 500 nM. The figure for `Cc1cccc(OCC(C)C)c1-n1nc2c(c1-c1ccc(NC(N)=O)c(F)c1)CN(c1ncc(C(F)(F)F)cc1Cl)CC2` [Example 1.276] is no more than 5 nM.

As for `Cc1cccc(OCC(C)C)c1-n1nc2c(c1-c1ccc(NC(N)=O)cc1)CN(C(=O)NC(C)(C)C)CC2` [Example 1.437], the IC50 was greater than 500 nM. The figure for `Cc1cccc(OCC(C)C)c1-n1nc2c(c1-c1ccc(NC(N)=O)c(F)c1)CN(S(=O)(=O)c1ccccc1C(F)(F)F)CC2` [Example 1.229] is 5 to 50 nM. With `Cc1cccc(C)c1-n1nc2c(c1-c1cc(F)c(NC(N)=O)cc1F)CN(c1ccc(F)cc1Cl)CC2` [Example 1.106], the IC50 was no more than 5 nM. For the molecule `Cc1cccc(CCC(C)C)c1-n1nc2c(c1-c1ccc(NC(N)=O)cc1)CN(c1ncc(C(F)(F)F)cc1F)CC2` [Example 1.311], the IC50 lay within 5 to 50 nM. The figure for `Cc1cccc(OCC(C)C)c1-n1nc2c(c1-c1ccc(NC(N)=O)cc1)CN(C(C)c1cccc(C(F)(F)F)c1)CC2` (stereo not drawn) [Example 1.314] is 5 to 50 nM; for `CCc1cccc(CC)c1-n1nc2c(c1-c1ccc(NC(N)=O)cc1)CN(Cc1ccc(Cl)cc1C(F)(F)F)CC2` [Example 1.278] it is 5 to 50 nM; for `Cc1cccc(OCC(C)C)c1-n1nc2c(c1-c1ccc(NC(N)=O)cc1)CN(c1ccccc1C(C)(C)C)CC2` [Example 1.454] it is no more than 5 nM.

Consider `Cc1cc(NC(N)=O)c(F)cc1-c1c2c(nn1-c1c(C)cccc1OCC(C)C)CCN(c1ncc(C(C)C)cc1F)C2` [Example 1.129], for which the IC50 is no more than 5 nM. Regarding `Cc1cccc(OCC(C)C)c1-n1nc2c(c1-c1ccc(NC(N)=O)cc1)CN(C(=O)C(C)(C)C)CC2` [Example 1.436], the IC50 lay within 50 to 500 nM. For the molecule `Cc1cccc(OCC(C)C)c1-n1nc2c(c1-c1ccc(NC(N)=O)cc1)CN(Cc1cc(F)ccc1Cl)CC2` [Example 1.320], the IC50 is no more than 5 nM.

`Cc1cccc(OCC(C)C)c1-n1nc2c(c1-c1ccc(NC(N)=O)cc1)CN(c1cnc(C(F)(F)F)cn1)CC2` [Example 1.341]: the IC50 was 5 to 50 nM. For the molecule `Cc1cccc(OCC(C)C)c1-n1nc2c(c1-c1ccc(NC(N)=O)cc1)CN(Cc1cc(Cl)ccc1Cl)CC2` [Example 1.324], the IC50 is no more than 5 nM. Then `Cc1cc(C(N)=O)ccc1-c1c2c(nn1-c1c(C)cccc1C)CCN(c1ncc(Cl)cc1Cl)C2` [Example 1.108], with greater than 500 nM. Take `COc1ccc(-c2c3c(nn2-c2c(C)cccc2C)CCN(c2cc(C(C)(C)C)ccc2C)C3)cc1` [Example 1.472]: the concentration for half-maximal inhibition (IC50) lay within 50 to 500 nM. The figure for `COc1cccc(C)c1-n1nc2c(c1-c1ccc(NC(N)=O)cc1)CN(c1cc(C(C)(C)C)ccc1C)CC2` [Example 1.462] is 5 to 50 nM; for `Cc1cccc(C(C)C)c1-n1nc2c(c1-c1ccc(NC(N)=O)cc1)CN(C(=O)OC(C)(C)C)CC2` [Example 1.428] it is 50 to 500 nM. As to `Cc1cccc(C)c1-n1nc2c(c1-c1cc(F)c(NC(N)=O)cc1F)CN(c1ncc(C(F)(F)F)cc1F)CC2` [Example 1.174], the IC50 is no more than 5 nM. For the molecule `CCc1cccc(CC)c1-n1nc2c(c1-c1cc(F)c(NC(N)=O)cc1F)CN(Cc1ccc(C(F)(F)F)cc1C(F)(F)F)[C@@H](C)C2` [Example 1.016], the IC50 is no more than 5 nM.

In the case of `Cc1cccc(OCC(C)C)c1-n1nc2c(c1-c1ccc(C(C)(C)O)cc1)CN(c1ccccc1C(C)(C)C)CC2` [Example 1.449], the IC50 was greater than 500 nM. `Cc1cccc(OCC(C)C)c1-n1nc2c(c1-c1ccc(NC(N)=O)cc1)CN(c1ncc(F)cc1C(F)(F)F)CC2` [Example 1.322]: the IC50 was no more than 5 nM.

For the molecule `Cc1cccc(C)c1-n1nc2c(c1-c1cc(F)c(NC(=O)CO)cc1F)CN(c1ncc(Cl)cc1Cl)CC2` [Example 1.125], the IC50 is 50 to 500 nM. Take `Cc1ccc(C(C)(C)C)cc1N1CCc2nn(-c3c(C)cccc3OCC(C)C)c(-c3ccc(C(N)=O)cc3)c2C1` [Example 1.445]: the IC50 fell in the range of 5 to 50 nM. Then `Cc1cccc(OCC(C)C)c1-n1nc2c(c1-c1ccc(NC(N)=O)c(F)c1)CN(c1cc(F)cnc1F)CC2` [Example 1.251], with 5 to 50 nM; and `CCc1cccc(CC)c1-n1nc2c(c1-c1cc(F)c(NC(N)=O)cc1F)CN(Cc1ccc(C)cc1C)CC2` [Example 1.063], with no more than 5 nM.

As to `Cc1cccc(OCC(C)C)c1-n1nc2c(c1-c1cc(F)c(NC(N)=O)cc1F)CN(c1ccnc(C(F)(F)F)n1)CC2` [Example 1.137], the IC50 was no more than 5 nM. With `CCc1cccc(CC)c1-n1nc2c(c1-c1cc(F)c(NC(N)=O)cc1F)CN(C(=O)c1ccnn1C)C(C)(C)C2` [Example 1.005], the IC50 lay in the range of 5 to 50 nM. Then `CCc1cccc(CC)c1-n1nc2c(c1-c1cc(F)c(NC(N)=O)cc1F)CN(Cc1ccccc1C(F)(F)F)C(C)(C)C2` [Example 1.027], with no more than 5 nM.
